Reference: patent US20240016781A1, “TREATMENT OF KRAS MUTANT CANCERS” (MEI Pharma, Inc., priority 2020, published 2024)
Where two headings read alike, the source gives them in different places.

Columns and labels:
MIA PaCa-2 xenografts = experiment: CIVO intratumoral microinjection, MIA PaCa-2 xenografts; type: in vivo; settings: MIA PaCa-2 PDAC tumors
Description: Replicate Tumors: n≥5. Time Point: 24 hr. Cell Line; MIA PaCa-2. Biomarker: CC3, H&E.
The original paraffin embedded fixed tumor blocks were sliced and stained for MCL-1 and total MYC using antibodies specific to each. The MYC staining is in red. The MCL-1 staining is in yellow. The nuclei are stained in blue. For MYC and MCL-1, a decrease in the signal indicates an on-target effect of VOR.

clinical = settings: human, in vivo
Description: (§1) Voruciclib half life is designated as t½ in the tables (expressed in hours).
(§2) Voruciclib volume of distribution is designated as Vz/F (expressed in liters).

Solid Tumors = experiment: Monotherapy Phase 1 study in solid tumors, daily continuously schedule; type: in vivo, human
MYC protein in AML cells = settings: 3 hr; cited from earlier work
[1] = SCID, mouse, in vivo, po, 100 mg/kg
Description: Animals were randomized into 2 groups when tumors reached 100 mm diameter. Group A assigned single dosing. […] Drug concentration was measured in tumor and plasma after last dose at the following time points: 0, 4, 8, 24, 48, 72 hrs. […] Concentration of voruciclib in plasma is in units of μg/ml and in μg/g for tumors.

[2] = test system: Venetoclax Sensitive and Resistant Cell Lines; experiment: Voruciclib + venetoclax synergy in venetoclax sensitive and resistant cell lines; type: cell-based
Description: FIG. 4A: Ven Sensitive; FIG. 4B: Ven Resistant.

[3] = test system: Relapsed/Refractory B-cell malignancies; Relapsed/Refractory AML; experiment: Phase 1 study in R/R B-cell malignancies and AML; type: in vivo, human
Description: Study population: Relapsed/Refractory B-cell malignancies; Relapsed/Refractory AML; Dose escalation with standard 3+3 design.
Endpoints: Safety and tolerability, Pharmacokinetics, Biologic correlative studies (BH3 profiling, MCL-1 expression, molecular mutations analysis), Response rates.
Voruciclib single agent dose escalation: 50 mg>100 mg>150 mg>200 mg.
Differentiation syndrome seen in 5 pts (50%) (Increased WBC without increased in blasts, bone pain, pulmonary symptoms; Response to corticosteroids).

[4] = PK of voruciclib, 2 weeks of daily dosing followed by 1 week without dosing in a 21-day cycle (Table 3); type: in vivo, human; settings: for Accumulation Ratio (AUC0-24 h): Day 13/Day 1, 2 weeks daily dosing/1 week off; for AUC(0-inf) / Cmax / half-life / AUC(0-t) / Vd/F / Tmax: human, plasma, oral; for Vd/F: read-out: Vz/F; for Tmax: median
Description: as §1, §2

NCI-H358 cells = experiment: 2D culture dose response; type: cell-based; settings: Homo sapiens
[5] = Daily continuously schedule, 75 to 500 mg, 39 pts
[6] = 75 mg, Day 1, 2 weeks daily dosing/1 week off, mean
[7] = 75 mg, Day 13, 2 weeks daily dosing/1 week off, mean
[8] = 150 mg, Day 1, 2 weeks daily dosing/1 week off, mean
[9] = 150 mg, Day 13, 2 weeks daily dosing/1 week off, mean
[10] = 300 mg, Day 1, 2 weeks daily dosing/1 week off, mean
[11] = 300 mg, Day 13, 2 weeks daily dosing/1 week off, n = 1
[12] = 600 mg, Day 1, 2 weeks daily dosing/1 week off, mean
[13] = 600 mg, Day 13, 2 weeks daily dosing/1 week off, mean
[14] = 850 mg, Day 1, 2 weeks daily dosing/1 week off, mean
[15] = 850 mg, Day 13, 2 weeks daily dosing/1 week off, mean

additional time to clear from the tissue after it clears the plasma (clinical): 3 days | time for the drug to be eliminated from the plasma after stopping (clinical): 5 to 10 days | volume of distribution (clinical): High volume of distribution | volume of distribution relative to blood volume (clinical): ~60 times | half-life (clinical; Half life): 1440 to 1680 min | voruciclib level in tumor at 8 hours compared to 24 hours post dosing [1]: > 5 fold | Accumulation Ratio (AUC0-24 h) ([4]; 75 mg, mean): 2.937 | Accumulation Ratio (AUC0-24 h) ([4]; 150 mg, mean): 2.129 | Accumulation Ratio (AUC0-24 h) ([4]; 300 mg, mean): 2.602 | Accumulation Ratio (AUC0-24 h) ([4]; 600 mg, mean): 2.064 | Accumulation Ratio (AUC0-24 h) ([4]; 850 mg, mean): 3.139 | AUC(0-inf) [4, 6]: 4210 ng·h/mL | Cmax [4, 6]: 193 ng/mL | half-life [4, 6]: 1300 min | AUC(0-t) ([4]; 75 mg, Day 1, 2 weeks daily dosing/1 week off, mean, read-out: AUC0-24): 2280 ng·h/mL | AUC(0-t) ([4]; 75 mg, Day 1, 2 weeks daily dosing/1 week off, mean, read-out: AUC0-t): 2280 ng·h/mL | Vd/F [4, 6]: 1280 L | Tmax ([4]; 75 mg, Day 1, 2 weeks daily dosing/1 week off): 4 h | AUC(0-inf) [4, 7]: 8660 ng·h/mL | Cmax [4, 7]: 313 ng/mL | half-life [4, 7]: 1020 min | AUC(0-t) ([4]; 75 mg, Day 13, 2 weeks daily dosing/1 week off, mean, read-out: AUC0-24): 5290 ng·h/mL | AUC(0-t) ([4]; 75 mg, Day 13, 2 weeks daily dosing/1 week off, mean, read-out: AUC0-t): 5290 ng·h/mL | Vd/F [4, 7]: 349 L | Tmax ([4]; 75 mg, Day 13, 2 weeks daily dosing/1 week off): 4 h | AUC(0-inf) [4, 8]: 15800 ng·h/mL | Cmax [4, 8]: 456 ng/mL | half-life [4, 8]: 1950 min | AUC(0-t) ([4]; 150 mg, Day 1, 2 weeks daily dosing/1 week off, mean, read-out: AUC0-24): 6980 ng·h/mL | AUC(0-t) ([4]; 150 mg, Day 1, 2 weeks daily dosing/1 week off, mean, read-out: AUC0-t): 6980 ng·h/mL | Vd/F [4, 8]: 1650 L | Tmax ([4]; 150 mg, Day 1, 2 weeks daily dosing/1 week off): 4 h | AUC(0-inf) [4, 9]: 28200 ng·h/mL | Cmax [4, 9]: 896 ng/mL | half-life [4, 9]: 1560 min | AUC(0-t) ([4]; 150 mg, Day 13, 2 weeks daily dosing/1 week off, mean, read-out: AUC0-24): 13000 ng·h/mL | AUC(0-t) ([4]; 150 mg, Day 13, 2 weeks daily dosing/1 week off, mean, read-out: AUC0-t): 13000 ng·h/mL | Vd/F [4, 9]: 459 L | Tmax ([4]; 150 mg, Day 13, 2 weeks daily dosing/1 week off): 4 h | AUC(0-inf) [4, 10]: 148000 ng·h/mL | Cmax [4, 10]: 1000 ng/mL | half-life [4, 10]: 8270 min | AUC(0-t) ([4]; 300 mg, Day 1, 2 weeks daily dosing/1 week off, mean, read-out: AUC0-24): 15700 ng·h/mL | AUC(0-t) ([4]; 300 mg, Day 1, 2 weeks daily dosing/1 week off, mean, read-out: AUC0-t): 15700 ng·h/mL | Vd/F [4, 10]: 3980 L | Tmax ([4]; 300 mg, Day 1, 2 weeks daily dosing/1 week off): 6 h | Cmax ([4]; 300 mg, Day 13, 2 weeks daily dosing/1 week off, mean): 2100 ng/mL | AUC(0-t) ([4]; 300 mg, Day 13, 2 weeks daily dosing/1 week off, mean, read-out: AUC0-24): 40400 ng·h/mL | AUC(0-t) ([4]; 300 mg, Day 13, 2 weeks daily dosing/1 week off, mean, read-out: AUC0-t): 40400 ng·h/mL | Tmax ([4]; 300 mg, Day 13, 2 weeks daily dosing/1 week off): 12 h | AUC(0-inf) [4, 11]: 59300 ng·h/mL | half-life [4, 11]: 970 min | Vd/F [4, 11]: 185 L | AUC(0-inf) [4, 12]: 61500 ng·h/mL | Cmax [4, 12]: 1630 ng/mL | half-life [4, 12]: 1950 min | AUC(0-t) ([4]; 600 mg, Day 1, 2 weeks daily dosing/1 week off, mean, read-out: AUC0-24): 24800 ng·h/mL | AUC(0-t) ([4]; 600 mg, Day 1, 2 weeks daily dosing/1 week off, mean, read-out: AUC0-t): 24800 ng·h/mL | Vd/F [4, 12]: 1550 L | Tmax ([4]; 600 mg, Day 1, 2 weeks daily dosing/1 week off): 4 h | AUC(0-inf) [4, 13]: 86000 ng·h/mL | Cmax [4, 13]: 2940 ng/mL | half-life [4, 13]: 1140 min | AUC(0-t) ([4]; 600 mg, Day 13, 2 weeks daily dosing/1 week off, mean, read-out: AUC0-24): 43500 ng·h/mL | AUC(0-t) ([4]; 600 mg, Day 13, 2 weeks daily dosing/1 week off, mean, read-out: AUC0-t): 43500 ng·h/mL | Vd/F [4, 13]: 394 L | Tmax ([4]; 600 mg, Day 13, 2 weeks daily dosing/1 week off): 4 h | AUC(0-inf) [4, 14]: 109000 ng·h/mL | Cmax [4, 14]: 1730 ng/mL | half-life [4, 14]: 3000 min | AUC(0-t) ([4]; 850 mg, Day 1, 2 weeks daily dosing/1 week off, mean, read-out: AUC0-24): 31400 ng·h/mL | AUC(0-t) ([4]; 850 mg, Day 1, 2 weeks daily dosing/1 week off, mean, read-out: AUC0-t): 31400 ng·h/mL | Vd/F [4, 14]: 2150 L | Tmax ([4]; 850 mg, Day 1, 2 weeks daily dosing/1 week off): 9 h | AUC(0-inf) [4, 15]: 170000 ng·h/mL | Cmax [4, 15]: 4450 ng/mL | half-life [4, 15]: 1340 min | AUC(0-t) ([4]; 850 mg, Day 13, 2 weeks daily dosing/1 week off, mean, read-out: AUC0-24): 83900 ng·h/mL | AUC(0-t) ([4]; 850 mg, Day 13, 2 weeks daily dosing/1 week off, mean, read-out: AUC0-t): 83900 ng·h/mL | Vd/F [4, 15]: 315 L | Tmax ([4]; 850 mg, Day 13, 2 weeks daily dosing/1 week off): 5 h | IC50 (NCI-H358 cells): 600 nM
SMILES: CN1CC[C@@H](c2c(O)cc(O)c3c(=O)cc(-c4ccc(C(F)(F)F)cc4Cl)oc23)[C@@H]1CO [Voruciclib, (+)-trans-2-(2-Chloro-4-trifluoromethylphenyl)-5,7-dihydroxy-8-(2-hydroxymethyl-1-methylpyrrolidin-3-yl)-chromen-4-one]
MYC positive cells (MIA PaCa-2 xenografts): decrease in MYC | best response (Solid Tumors; [5]): 12 SD lasting a median of 15 weeks | disease control rate (Solid Tumors; [5]): 31% | patients with decreased c-MYC expression (Solid Tumors; Phase 1 daily dosing study, 17/25 patients tested): 68% | MYC protein (MYC protein in AML cells): decrease in MYC protein | synergy with Venetoclax [2]: Synergizes with Venetoclax | GI toxicity or neutropenia ([3]; 24 pts in 3 dose levels, 10 AML and 14 B-cell malignancies): No GI toxicity or neutropenia at doses studied | patients with differentiation syndrome ([3]; AML): 50%
